Source: patent US11419856B2, “Pharmaceutical combinations for use in the treatment of neoplastic diseases” (Basilea Pharmaceutica International AG, priority 2017, dated 2022)
pIC50: −log10 of the molar value. Read-outs that look alike come from different tables or passages of the source.

Assays:
[1] = system: microtubules (soluble vs polymerized tubulin), MDA-MB-231 cells; experiment: Cellular microtubule destabilization assay and immunoblotting for tubulin; assay type: cell-based, human; conditions: 2 hours
Procedure: The following human cell line was used: MDA-MB-231 (ATCC: HTB-26). In addition the following enhanced green fluorescent protein (EGFP)-transfected human cell lines were used: NCI-H460 (ATCC: HTB-177) (H460GFP) and Jurkat (ATCC: TIB-152) (JurkatGFP). NCI-H460 and Jurkat cell lines were cultured in RPMI-1640 tissue culture medium containing 10% (v/v) fetal calf serum, 2 mM glutamine, non-essential amino acids and 50 μg/ml penicillin/streptomycin (Complete medium) (Sigma, Buchs, Switzerland). The MDA-MB-231 cell line was cultured in Dulbecco's Modified Eagle Medium (DMEM) (high glucose) tissue culture medium containing 10% (v/v) fetal calf serum, 1 mM sodium pyruvate and 50 μg/ml penicillin/streptomycin (i.e. Complete Medium) (Sigma, Buchs, Switzerland).
General growth conditions were 37° C. and 7.5% CO2. For the microtubule destabilization assay cell lines were cultured in 5% CO2.
Trypsinized MDA-MB-231 cells (500′000 cells per treatment) were treated in 1 mL medium containing BAL27862 and/or eribulin (Halaven®, Ch.-B. 60363CRN1, Eisai) or appropriate vehicle control (dimethylsulfoxide (DMSO)) for 2 hours in a water bath at 37° C. […]

MDA-MB-231 cells = experiment: Soft agar clonogenic (colony outgrowth) assay, anti-proliferative IC50; assay type: cell-based; conditions: Homo sapiens
Procedure: Cells were plated in soft agar in 24-well plates according to the assay introduced by Hamburger & Salmon (Primary bioassay of human tumor stem cells, Science, 1977, 197:461-463). Each test well contained three layers of equal volume: 2 layers of semi-solid medium (bottom and top layer), and one layer of medium supernatant, with or without test compound (drug overlay on top of the semi-solid medium layer).
The bottom agar layer consisted of 0.2 mL/well IMDM supplemented with 20% (v/v) fetal calf serum, penicillin/streptomycin 50 μg/mL and 0.75% (w/v) bacto agar (BD Biosciences, #214050). For the top agar layer, 10′000-20′000 cells were added to 0.2 mL of the same IMDM medium supplemented with 0.35% (w/v) bacto agar and plated onto the bottom layer. For the drug overlay, the test compounds were applied by continuous exposure in 0.2 mL IMDM medium on top of the two agar layers. The drug overlay was added directly after seeding the cells as 3-fold concentrated solution and changed carefully every 3-4 days. Every 24-well plate contained untreated controls and samples in duplicates. Cultures were incubated at 37° C. and 5% CO2 for 6-14 days. 24 hours prior to evaluation, vital colonies were stained with a sterile aqueous solution of 2-(4-iodophenyl)-3-(4-nitrophenyl)-5-phenyltetrazolium chloride (Sigma, #I-8377, 1 mg/mL, 100 μL/well) (Alley M C et al., Life Sci. 1982, 31:3071-3078) and were counted with an automatic image analysis system (GelCount, Oxford Optronix). IC50-values were determined by plotting compound concentrations versus relative colony counts. Relative drug effects were expressed by the maximum effect of the mean number of colonies in the treated wells in comparison to the control wells.

HCT116 = experiment: Soft agar assay, IC50 of single agents in HCT116; assay type: cell-based; conditions: Homo sapiens, HCT-116
Procedure: (§1) Example 5: Determination of Drug Interaction in Cell Lines by Soft Agar Assay
(§2) The combination of BAL101553 with eribulin was tested in various cell lines by soft agar assay. Table 1 and Table 2 present the results according to coefficient of drug interaction based on colony number (Table 1) and total area of colonies (Table 2). In both cases the coefficient of drug interaction is calculated according to the formula described in Zhao et al., J Intercult Ethnopharmacol. 2014, 3(2): 68-72): (combination/untreated)/[(compound1/untreated)×(compound2/untreated)]

MiaPaCa2 = experiment: Soft agar assay, IC50 of single agents in MiaPaCa2; assay type: cell-based; conditions: Homo sapiens, MIA PaCa-2
Procedure: as §1, §2

[2] = read-out: IC50 values in soft agar assay
[3] = soft agar clonogenic assay, data not shown, read-out: anti-proliferative IC50

SMILES | microtubule destabilizing activity (soluble vs particulate tubulin, Western blot) ([1]; single agent 20 and 30 nM (FIG. 5A)) | pIC50 (MDA-MB-231 cells; [2]) | pIC50 (MDA-MB-231 cells; [3]) | pIC50 (HCT116) | pIC50 (MiaPaCa2) | microtubule destabilizing activity (soluble vs particulate tubulin, Western blot) ([1]; single agent 0.2 nM and 2 nM)
N#CCCNc1nonc1-c1nc2ccccc2n1CC(=O)c1ccc(N)cc1 [BAL27862, 3-(4-{1-[2-(4-Amino-phenyl)-2-oxo-ethyl]-1H-benzoimidazol-2-yl}-furazan-3-ylamino)-propionitrile] | concentration-dependent but incomplete destabilizing effect | 7.92 | 7.92 | 7.74 | 8.05 | 
C=C1C[C@@H]2CC[C@@]34C[C@H]5O[C@H]6[C@@H](O3)[C@H]3O[C@H](CC[C@@H]3O[C@H]6[C@H]5O4)CC(=O)C[C@@H]3[C@@H](OC)[C@@H](C[C@H](O)CN)O[C@H]3C[C@H]3O[C@@H](CC[C@@H]1O2)C[C@@H](C)C3=C.CS(=O)(=O)O [Eribulin, (2R, 3R, 3aS, 7R, 8aS, 9S, 10aR, 11S, 12R, 13aR, 13bS, 15S, 18S, 21S, 24S, 26R, 28R, 29aS)-2-[(2S)-3-Amino-2-hydroxypropyl]-3-methoxy-26-methyl-20,27-dimethylidenehexacosahydro-11,15:18,21:24,28-triepoxy-7,9-ethano-12,15-methano-9H,15H-furo[3,2-i]furo[2′,3′:5,6]pyrano[4,3-b][1,4]dioxacyclopentacosin-5(4H)-one methanesulfonate (salt)] |  | 9.95 | 10.00 | 9.00 | 9.30 | only a small increase in soluble tubulin
